Data as given in ChEMBL document CHEMBL1201862, “PubChem BioAssay data set” (2004).
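Test compounds were applied to cells in 96-well plates for 48 hours at 5 doses. GI50 = concentration required for 50% inhibition of growth.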 The source made the active and inactive calls. Rule as the data show it: active = GI50 up to about 1.1 µM and inactive = higher.

What was measured:
Assay in all cases: growth of human tumour cells (NCI), 48 h
A549 = tested on: A549
CAKI-1 = tested on: CAKI-1
COLO 205 = tested on: COLO 205
HCC 2998 = tested on: HCC 2998
HCT-116 = tested on: HCT-116
M14 = tested on: M14
MCF7 = tested on: MCF7
MDA-MB-231 = tested on: MDA-MB-231
MDA-MB-435 = tested on: MDA-MB-435
NCI-H226 = tested on: NCI-H226
NCI-H23 = tested on: NCI-H23
NCI-H460 = tested on: NCI-H460
OVCAR-5 = tested on: OVCAR-5
PC-3 = tested on: PC-3
SF-539 = tested on: SF-539
SK-MEL-2 = tested on: SK-MEL-2
UACC-257 = tested on: UACC-257
SNB-75 = tested on: SNB-75

Measured: GI50

COc1ccc(C2OC(c3ccncc3)=NN2C)cc1OC (stereo not given)
inactive: A549 > 100 µM | CAKI-1 73.3 µM | COLO 205 > 100 µM | HCC 2998 > 100 µM | HCT-116 > 100 µM | M14 > 100 µM | MCF7 71.3 µM | MDA-MB-231 67.6 µM | MDA-MB-435 > 100 µM | NCI-H226 81.7 µM | NCI-H23 > 100 µM | NCI-H460 > 100 µM | OVCAR-5 > 100 µM | PC-3 53.2 µM | SF-539 > 100 µM | SK-MEL-2 > 100 µM | UACC-257 > 100 µM

COc1ccc(/C=N/N=C(\N)NO)cc1O
inactive: A549 27.6 µM | CAKI-1 48.2 µM | COLO 205 25.8 µM | HCC 2998 17.5 µM | HCT-116 37.5 µM | NCI-H226 33.4 µM | NCI-H23 31.9 µM | NCI-H460 25.5 µM | OVCAR-5 > 100 µM | SF-539 31.2 µM | SK-MEL-2 76.4 µM

CC1(C)OC[C@@H]([C@H](C=O)OCc2ccccc2)O1
inactive: A549 > 100 µM | COLO 205 > 100 µM | HCT-116 > 100 µM | M14 > 100 µM | MCF7 > 100 µM | MDA-MB-231 > 100 µM | MDA-MB-435 > 100 µM | NCI-H226 > 100 µM | NCI-H23 > 100 µM | OVCAR-5 > 100 µM | PC-3 > 100 µM | SK-MEL-2 > 100 µM | SNB-75 > 100 µM | UACC-257 > 100 µM

CCOC(=O)C(=C=Cc1cccs1)C(=O)c1ccccc1
inactive: A549 18.9 µM | COLO 205 17.6 µM | HCC 2998 17.4 µM | HCT-116 14.6 µM | M14 15 µM | NCI-H226 15 µM | NCI-H23 15.4 µM | NCI-H460 20.4 µM | OVCAR-5 15.2 µM | SF-539 16.5 µM | SK-MEL-2 19 µM | SNB-75 15.8 µM | UACC-257 12.9 µM

N#Cc1nc(-c2ccccc2O)oc1N
inactive: A549 63.5 µM | CAKI-1 36.9 µM | HCT-116 78.2 µM | M14 > 100 µM | MCF7 37.1 µM | MDA-MB-231 > 100 µM | MDA-MB-435 99.8 µM | OVCAR-5 > 100 µM | PC-3 91.2 µM | SK-MEL-2 > 100 µM | UACC-257 > 100 µM

COC(=O)C1=C(O)C(O)=C(C(=O)OC)CC1
inactive: A549 37 µM | CAKI-1 > 100 µM | COLO 205 > 100 µM | HCC 2998 > 100 µM | HCT-116 15.1 µM | M14 > 100 µM | NCI-H226 > 100 µM | NCI-H23 > 100 µM | NCI-H460 > 100 µM | OVCAR-5 > 100 µM | SF-539 > 100 µM | SK-MEL-2 > 100 µM | SNB-75 > 100 µM | UACC-257 > 100 µM
